In test [1] the test system is A/PR/8/34-PA/I38T. The class given is cell-based, influenza A(H1N1) virus. Particulars: read-out: IC50, plaque reduction.
The subject of test [2] is A/PR/8/34 (PA 38I wild-type). The experiment in a line: microbe, parasite or virus in culture. The class given is cell-based, influenza A(H1N1) virus. Particulars: Influenza A virus, PR/8, MDCK, 72 h, read-out: IC50, plaque reduction.
Test [3] concerns A/Chiba/1017/2009 (NA H275Y). It counts as cell-based, influenza A(H1N1)pdm09 virus.
Test [4] concerns A/Chiba/1016/2009 (NA 275H wild-type). Description: microbe, parasite or virus in culture. The class given is cell-based, influenza A(H1N1)pdm09 virus. Particulars: Influenza A virus, MDCK, 72 h, read-out: IC50, plaque reduction.
For test [5], the system named is A/Fukui/45/2004 (NA E119V). The class given is cell-based, influenza A(H3N2) virus.
The test system of test [6] is A/Fukui/20/2004 (NA 119E wild-type). Description: microbe, parasite or virus in culture. Particulars: Influenza A virus, MDCK, 72 h, read-out: IC50, plaque reduction. The class given is cell-based, influenza A(H3N2) virus.
Test [7] has as its system A/Kagoshima/2/2012 (NA R292K). The class given is cell-based, influenza A(H3N2) virus.
Test [8] has as its system A/Kagoshima/4/2012 (NA 292R wild-type). Description: microbe, parasite or virus in culture. The class given is cell-based, influenza A(H3N2) virus. Particulars: Influenza A virus, MDCK, 72 h, read-out: IC50, plaque reduction.
Test [9] has as its system B/Perth/211/2001-197E (NA D197E). It counts as cell-based, influenza B virus.
Test [10] relates to B/Perth/211/2001-197D (NA 197D wild-type). Description: microbe, parasite or virus in culture. It counts as cell-based. Particulars: Influenza B virus, MDCK, 72 h, read-out: IC50, plaque reduction.
Test [11] deals with A/PR/8/34-PA/I38T. The class given is cell-based, influenza A(H1N1) virus.
Test [12] relates to A/PR/8/34 (PA 38I wild-type). The experiment in a line: microbe, parasite or virus in culture. It counts as cell-based, influenza A(H1N1) virus. Particulars: Influenza A virus, PR/8, MDCK, 24 h, read-out: IC50, focus reduction.
The test system of test [13] is A/Chiba/1017/2009 (NA H275Y). The class given is cell-based, influenza A(H1N1)pdm09 virus. This is another data set of the same source.
Test [14] deals with A/Chiba/1016/2009 (NA 275H wild-type). The experiment in a line: microbe, parasite or virus in culture. It counts as cell-based, influenza A(H1N1)pdm09 virus. Particulars: Influenza A virus, MDCK, 24 h, read-out: IC50, focus reduction.
For test [15], the system named is A/Fukui/45/2004 (NA E119V). It counts as cell-based, influenza A(H3N2) virus. This is another data set of the same source.
Test [16] relates to A/Fukui/20/2004 (NA 119E wild-type). Description: microbe, parasite or virus in culture. The class given is cell-based, influenza A(H3N2) virus. Particulars: Influenza A virus, MDCK, 24 h, read-out: IC50, focus reduction.
For test [17], the system named is A/Kagoshima/2/2012 (NA R292K). The class given is cell-based, influenza A(H3N2) virus. This is another data set of the same source.
The subject of test [18] is A/Kagoshima/4/2012 (NA 292R wild-type). Description: microbe, parasite or virus in culture. The class given is cell-based, influenza A(H3N2) virus. Particulars: Influenza A virus, MDCK, 24 h, read-out: IC50, focus reduction.
In test [19] the test system is B/Perth/211/2001-197E (NA D197E). It counts as cell-based, influenza B virus. The source holds these as a separate data set.
Test [20] deals with B/Perth/211/2001-197D (NA 197D wild-type). Description: microbe, parasite or virus in culture. Particulars: Influenza B virus, MDCK, 24 h, read-out: IC50, focus reduction. The class given is cell-based.
The test system of test [21] is influenza A(H1N1) viruses with PA I38T. Particulars: cited from earlier work.
Test [22] deals with influenza A(H1N1) virus with PA I38T. Particulars: cited from earlier work.
The test system of test [23] is influenza A(H1N1) virus with PA I38F. Particulars: cited from earlier work.
The subject of test [24] is influenza A(H1N1) virus with PA E23K. Particulars: cited from earlier work.
For test [25], the system named is influenza B virus with PA G548R. Particulars: cited from earlier work.
Test [26] concerns influenza A(H3N2) virus with PA I38T. Particulars: cited from earlier work.
In test [27] the test system is influenza A(H3N2) virus with PA I38M. Particulars: cited from earlier work.
Test [28] has as its system influenza A(H3N2) virus with PA A37T. Particulars: cited from earlier work.
Test [29] has as its system influenza A(H3N2) virus with PA E199G. Particulars: cited from earlier work.
Test [30] concerns influenza A(H3N2) virus with PA N412D. Particulars: cited from earlier work.
The subject of test [31] is influenza A(H3N2) virus with PA V517A. Particulars: cited from earlier work.
Test [32] relates to influenza A(H3N2) virus with PA P632S. Particulars: cited from earlier work.
The target in test [33] is A/Chiba/1017/2009 (NA H275Y) neuraminidase (NA) (Influenza A virus, UniProt C7FH46, H275Y). It counts as biochemical, influenza A(H1N1)pdm09 virus.
Test [34] concerns the target A/Fukui/45/2004 (NA E119V) neuraminidase (NA) (Influenza A virus, UniProt C6ELZ0, E119V). It counts as biochemical, influenza A(H3N2) virus.
Test [35] has as its target A/Kagoshima/2/2012 (NA R292K) neuraminidase (NA) (Influenza A virus, UniProt J9TKI7, R292K). It counts as biochemical, influenza A(H3N2) virus.
Test [36] addresses B/Perth/211/2001-197E (NA D197E) neuraminidase (NA) (Influenza B virus, UniProt Q3S340, D197E). It counts as biochemical.
Test [37] addresses B/Perth/211/2001-197D (NA 197D wild-type) neuraminidase (NA) (Influenza B virus, UniProt Q3S340). The class given is biochemical.
The target of test [38] is A/PR/8/34 (PA 38I wild-type) neuraminidase (NA) (Influenza A virus, UniProt P03468). The class given is biochemical, influenza A(H1N1) virus.
For test [39], the target named is A/Chiba/1016/2009 (NA 275H wild-type) neuraminidase (NA) (Influenza A virus, UniProt C7FH46). The class given is biochemical, influenza A(H1N1)pdm09 virus.
For test [40], the target named is A/Fukui/20/2004 (NA 119E wild-type) neuraminidase (NA) (Influenza A virus, UniProt C6ELZ0). It counts as biochemical, influenza A(H3N2) virus.
Test [41] has as its target A/Kagoshima/4/2012 (NA 292R wild-type) neuraminidase (NA) (Influenza A virus, UniProt J9TKI7). It counts as biochemical, influenza A(H3N2) virus.
The target in test [42] is A/PR/8/34-PA/I38T neuraminidase (NA) (Influenza A virus, UniProt P03468).
Where [43] appears, read: read-out: IC50, plaque reduction.
[44] abbreviates: read-out: IC50, focus reduction.

“And” between values parts separate entries of the source, which are not always exact repeats. Identical values can stand only once. Like-named read-outs stand apart in the source and are kept apart here.

For the molecule `O=C1c2c(O)c(=O)ccn2N([C@@H]2c3ccccc3SCc3c2ccc(F)c3F)[C@@H]2COCCN12` [Baloxavir, baloxavir acid], the IC50 with A/PR/8/34-PA/I38T [1] turned out to be 2.72 nM; in test [2], 0.05 ± 0.02 nM; in test [3] (setting [43]) it was 0.21 nM; in [4], 0.27 ± 0.09 nM; in test [5] (setting [43]), 0.15 nM; in test [6] it was 0.42 ± 0.15 nM. Also, the IC50 in [7] (setting [43]) amounted to 0.22 nM; in [8] it was 0.15 ± 0.06 nM; in test [9] (setting [43]), 5.68 nM; in [10], 2.2 ± 0.28 nM; with A/PR/8/34-PA/I38T [11] (setting [44]) it was 7.4 nM; in test [12] it was 0.17 ± 0.03 nM. The IC50 in test [13] (setting [44]) stood at 0.53 nM; in test [14] it was 0.5 ± 0.02 nM; in test [15] (setting [44]) it was 0.62 nM; in test [16] it was 1.18 ± 0.49 nM; in test [17] (setting [44]) it was 0.59 nM; in test [18], 0.29 ± 0.08 nM. In addition, the IC50 in [19] (setting [44]) came out at 5.63 nM; in test [20], 5.41 ± 1.99 nM. The “IC50 fold-change, plaque reduction” value in test [3] was 0.21 ± 0.02 (0.8) fold; in test [5], 0.15 ± 0.02 (0.4) fold; in test [7], 0.22 ± 0.09 (1.5) fold; in [9], 5.68 ± 1.00 (2.6) fold. Moreover, the “IC50 fold-change, focus reduction” value in the test on A/PR/8/34-PA/I38T [11] is 44 fold; in test [13], 0.53 ± 0.15 (1.0) fold; in test [15], 0.62 ± 0.04 (0.5) fold; in test [17] it was 0.59 ± 0.29 (2.0) fold; in [19] it was 5.63 ± 2.34 (1.0) fold. Also, in test [21], the “fold-change in EC50” value is 41 fold and 40 fold. Also, the “fold higher EC50” value is 27.2 fold in test [22]; 10.6 fold in test [23]; 4.7 fold in [24]; 56.6 fold in test [26]; 13.8 fold in test [27]; 8.1 fold in test [28]. The “fold higher EC50” value in test [29] is 4.5 fold. Also, the “effect of substitution on baloxavir susceptibility” value in [25] is “does not affect baloxavir susceptibility”; in test [30] it was “not affected”; in [31] it was “not affected”; in [32] it was “not affected”.
Regarding `CO[C@@H]([C@@H]1OC(C(=O)O)=C[C@H](NC(=N)N)[C@H]1NC(C)=O)[C@H](O)CO` [Laninamivir], the “NA inhibitor susceptibility (WHO criteria)” value (“NA inhibitor susceptibility” for short) is 0.3 ± 0.1 NI in test [33], 1.2 ± 0.1 NI in test [34], 3.9 ± 0.1 NI in test [35] and 1.9 ± 0.1 NI in [36]. Also, the IC50 in [37] was 1.3 ± 0.3 nM.
Take `CCC(CC)[C@H](NC(C)=O)[C@@H]1[C@H](O)[C@@H](C(=O)O)C[C@H]1N=C(N)N` [Peramivir, peramivir]: the IC50 is 0.09 ± 0.01 nM in test [38]; 28 ± 3.9 nM in [33]; 0.1 ± 0.1 nM in test [39]; 0.2 ± 0.1 nM in test [34]; 0.2 ± 0.1 nM in [40]; 35.2 ± 2.6 nM in test [35]. Moreover, the IC50 turned out to be 0.1 ± 0.1 nM in test [41], 16.2 ± 6 nM in [36], 0.4 ± 0.1 nM in test [37] (read-out: IC50) and 0.09 nM in test [42]. Besides, the “NA inhibitor susceptibility” value in test [34] is on record as 0.2 ± 0.1 NI; in test [36], 16.2 ± 6.0 RI (key: normal inhibition (NI); RI: a 5- to 50-fold increase in IC50 for influenza B viruses; HRI: influenza B viruses with >50-fold increase in IC50). The IC50 fold-change in test [42] is 0.09 ± 0.01 (1.0) fold.
Consider `CC(=O)N[C@H]1[C@H]([C@H](O)[C@H](O)CO)OC(C(=O)O)=C[C@@H]1N=C(N)N` [Zanamivir, zanamivir], for which the “NA inhibitor susceptibility” value in [33] is 0.5 ± 0.1 NI.

As usually defined, the IC50 is the concentration that inhibits the measured activity by half.

Source of the values: paper PMC6291754 (Frontiers in Microbiology, 2018).
